From patent US20100028298A1 (priority 2006, published 2010)
Numbered stars: 1 amine (or outer) side, 2 acyl side, 3 side chain; on linkers, the order of the positions; unused ones are H or OH. Bridge positions count the residues as written; N and C are the ends. Square brackets hold non-standard residues; d marks the D form. Peptide text beside a SMILES is read from it. X1 = CC1CC(C2=NC(C(=O)[*:2])CS2)N1[*:1]; NMeV = CN[CH](C(=O)O)C(C)C; X2 = O=C(C(O)CO[*:2])[*:1]; Pip = O=C(O)[CH]1CCCCN1; Dhb = C/C=C(\N)C(=O)O

Experiments:
[1] = system: Herpes simplex virus strain 1 (HSV-1, dsDNA); assay: Antiviral effect on HSV-1, cytopathic effect on Vero cells; type: cell-based; settings: Vero cells infected with 10^4 PFU/ml HSV-1, different concentrations of vioprolide A alone, FIG. 6
[2] = system: interferon alpha activity in MXRage cells; assay: Cell-based virus-free type I interferon activity test, Mx-RAGE fibroblasts with eGFP reporter, flow cytometry, with interferon alpha; design: species or system murine
[3] = system: interferon beta activity in MXRage cells; assay: Cell-based virus-free type I interferon activity test, Mx-RAGE fibroblasts with eGFP reporter, flow cytometry, with interferon beta; design: species or system murine; settings: interferon beta standard curve, vioprolide A 50 ng/ml, FIG. 4 right panel
[4] = system: Vesicular stomalitis virus (VSV, ssRNA negative); type: cell-based; settings: MDBK cells, rhIFN-α2b alone and with 31 and 167 ng/ml vioprolide A, FIG. 5
[5] = system: human cervical carcinoma derived cell line WISH; assay: Antiproliferative activity on WISH cells; type: cell-based; settings: in the presence of rhIFN-α2b, FIG. 7
Procedure: FIG. 7: The antiproliferative effect of vioprolide A. The proliferation of WISH cells was tested at different concentrations of vioprolide A alone (grey) and in the present of IFN-α2b (black).
Further, the antiproliferative effect of vioprolide A has been determined. Using standard assays, the antiproliferative activity was evaluated with human cervical carcinoma derived cell line WISH.

Structure (SMILES): C/C=C1\NC(=O)C2CSC(=N2)C2CC(C)N2C(=O)C(CC(C)C)NC(=O)C(C)NC(=O)C(O)COC(=O)C(C(C)C)N(C)C(=O)C(C(C)O)NC(=O)C2CCCCN2C1=O (stereo not shown) [vioprolide A] (AL[X1][Dhb][Pip]T[NMeV]; linker N-C via X2; configuration not given here)
- anti-viral activity on HSV-1 (cytopathic effect) [1]: anti-viral activity
- increase of GFP positive cells ([2]; interferon alpha standard curve, vioprolide A 50 ng/ml, FIG. 4 left panel): remarkable increase
- reduction of the amount of interferon alpha to obtain the same percent of GFP positive cells ([2]; vioprolide A 50 ng/ml, FIG. 4 left panel): about 10 fold
- increase of GFP positive cells with vioprolide plus interferon type I compared to interferon type I alone ([2]; vioprolide A 0.2 to 400 ng/ml, serial two-fold dilutions, FIG. 3): ≤ 4 fold
- increase of GFP positive cells [3]: remarkable increase
- anti-viral activity of IFN on VSV (cytopathic effect) [4]: able to enhance the anti-viral activity of IFN on VSV
- effect on cell growth inhibition [5]: additive effect
